Here are results for 20 compounds from PubChem BioAssay (NCI).

Structures are written as SMILES.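 Where inhibition never reached the appropriate level, the endpoint shown equals the highest concentration tested. Otherwise, values were interpolated linearly from a five-concentration, 48-hour dose response in 96-well plates. At the TGI there is no net growth.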 A value given as a limit tells only on which side of the number the result lay.

Some test systems named below: BT-549 breast; SK-MEL-5 melanoma; A549 NSCLC; OVCAR-3 ovarian; MDA-MB-435; SW-620 colon; M14 melanoma; SNB-75 CNS; SN12C renal; NCI-H23 lung.
Common to all, as to test: DTP human tumour cell line panel, 48 h

As to `COc1cc2c(cc1OC(=O)c1cc3ccccc3[nH]1)N=C[C@@H]1CCCN1C2=O`, the total growth inhibition concentration (TGI) in the experiment on BT-549 breast came out at 5.37 µM; in the experiment on SK-MEL-5 melanoma it was 0.335 µM; with A549 NSCLC, 12 µM; in the experiment with OVCAR-3 ovarian it was 0.818 µM; with MDA-MB-435 it was 1.19 µM; in the experiment with SW-620 colon, 10.4 µM. Further, the figures for the TGI with M14 melanoma, in the experiment on SNB-75 CNS and in the experiment with SN12C renal were 0.387 µM, 7.02 µM and 0.513 µM, respectively.

On to `CCOC(=O)c1nc2cc(C(F)(F)F)ccc2nc1Nc1ccc(F)cc1`, for which the TGI with BT-549 breast, with SK-MEL-5 melanoma, in the experiment on A549 NSCLC, in the experiment on OVCAR-3 ovarian, with MDA-MB-435 and in the experiment on SW-620 colon was > 100 µM throughout. For the same compound, the TGI in the experiment on M14 melanoma, in the experiment with SNB-75 CNS, in the experiment with NCI-H23 lung and in the experiment with SN12C renal was > 100 µM each time.

As to `COc1ccc(-c2nnc(-c3ccncc3)o2)cc1`, the TGI with BT-549 breast, in the experiment with SK-MEL-5 melanoma, in the experiment with A549 NSCLC, with OVCAR-3 ovarian, in the experiment on MDA-MB-435 and with M14 melanoma was > 100 µM throughout. In addition, the TGI with SNB-75 CNS, with NCI-H23 lung and in the experiment with SN12C renal was > 100 µM throughout.

For `COP(=O)(OC)c1ccc(NCc2cc(O)ccc2O)cc1`, the concentration for total growth inhibition (TGI) in the experiment with BT-549 breast is 36.9 µM; in the experiment with SK-MEL-5 melanoma, 47.2 µM; in the experiment with A549 NSCLC it was > 100 µM; in the experiment with OVCAR-3 ovarian, 16.5 µM; in the experiment with MDA-MB-435, 74.1 µM; in the experiment on SW-620 colon, > 100 µM. In addition, the TGI in the experiment with M14 melanoma is > 61.1 µM; in the experiment on SNB-75 CNS it was > 77.7 µM; in the experiment on NCI-H23 lung it was > 75.8 µM; in the experiment with SN12C renal, > 70.6 µM.

For `CSC1(SC)N2Cc3ccccc3N=C2C1(c1ccccc1)c1ccccc1`, the TGI in the experiment with BT-549 breast is > 92.6 µM; in the experiment on SK-MEL-5 melanoma it was 28.8 µM; in the experiment on A549 NSCLC it was > 100 µM; in the experiment on OVCAR-3 ovarian, 28.3 µM; in the experiment with MDA-MB-435, 16 µM; with SW-620 colon, > 63.7 µM. Moreover, the total growth inhibition concentration (TGI) with M14 melanoma was > 100 µM; with SNB-75 CNS it was > 100 µM; in the experiment with NCI-H23 lung it was > 100 µM; in the experiment with SN12C renal, > 64.1 µM.

As to `COc1ccc(/C=N\NC(=O)Nc2cccc3ccccc23)cc1`, the concentration for total growth inhibition (TGI) in the experiment on BT-549 breast, with SK-MEL-5 melanoma, in the experiment with A549 NSCLC, in the experiment with MDA-MB-435, in the experiment on SW-620 colon and with M14 melanoma was > 100 µM throughout. For the same compound, the TGI with SNB-75 CNS was 34.5 µM; in the experiment with NCI-H23 lung, > 100 µM; in the experiment with SN12C renal, > 100 µM.

For the compound `O=c1oc2c/c(=C\c3ccccc3)c(=O)c3cccc1c3-2`, the concentration for total growth inhibition (TGI) is 51.6 µM in the experiment with BT-549 breast; > 100 µM in the experiment on A549 NSCLC; 63 µM in the experiment on OVCAR-3 ovarian; 51.7 µM with MDA-MB-435; 57.1 µM with SW-620 colon; 48.6 µM in the experiment on M14 melanoma. The TGI in the experiment on SNB-75 CNS, in the experiment on NCI-H23 lung and in the experiment with SN12C renal was > 100 µM in each case.

Take `CCCCC1(N=[N+]=[N-])C(=O)C2C=CC=C3c4ccccc4N(C1=O)C32` (stereo unspecified): the TGI with BT-549 breast, in the experiment with SK-MEL-5 melanoma, in the experiment on A549 NSCLC, in the experiment on OVCAR-3 ovarian, in the experiment with MDA-MB-435 and in the experiment on SW-620 colon was > 31.6 µM throughout. Moreover, the concentration for total growth inhibition (TGI) with M14 melanoma was > 31.6 µM; in the experiment on SNB-75 CNS it was 23.1 µM; in the experiment with NCI-H23 lung, > 31.6 µM; in the experiment on SN12C renal it was > 31.6 µM.

As to `CCCCCCCCCCCCCCCCCCOc1ccc(/C=C/C2=[N+](CCCl)CCO2)cc1`, the TGI with BT-549 breast, in the experiment with SK-MEL-5 melanoma, with A549 NSCLC, in the experiment with OVCAR-3 ovarian, in the experiment on MDA-MB-435 and in the experiment with SW-620 colon was > 100 µM in each case. The TGI in the experiment with M14 melanoma, in the experiment with SNB-75 CNS and with SN12C renal was > 100 µM in each case.

For the compound `NC(=O)c1ncn2c(=O)n(CCl)nnc12`, the TGI in the experiment on BT-549 breast, in the experiment on SK-MEL-5 melanoma, in the experiment on A549 NSCLC, in the experiment with OVCAR-3 ovarian, with MDA-MB-435 and in the experiment on SW-620 colon was > 100 µM each time. Moreover, the TGI in the experiment on M14 melanoma, in the experiment on SNB-75 CNS, in the experiment with NCI-H23 lung and in the experiment with SN12C renal was > 100 µM in each case.

As for `Cc1[nH]c(=O)nc2nc3ccc(Cl)cc3c(NC(C)(CO)CO)c12`, the TGI in the experiment with BT-549 breast, in the experiment with SK-MEL-5 melanoma, in the experiment with A549 NSCLC, with OVCAR-3 ovarian, with MDA-MB-435 and in the experiment on SW-620 colon was > 100 µM in each case. Also, the concentration for total growth inhibition (TGI) is > 100 µM with M14 melanoma, > 96.5 µM in the experiment with SNB-75 CNS, > 100 µM in the experiment with NCI-H23 lung and > 100 µM in the experiment with SN12C renal.

As to `Cc1cc(C)c2c(=N)c3ccccc3n(CCCCCCn3c4ccccc4c(=N)c4c(C)cc(C)nc43)c2n1`, the TGI came to 2.91 µM in the experiment on BT-549 breast; 3.39 µM with SK-MEL-5 melanoma; 3.03 µM in the experiment with A549 NSCLC; 3.09 µM with OVCAR-3 ovarian; 3.3 µM with MDA-MB-435; 0.34 µM in the experiment on SW-620 colon. In addition, the TGI in the experiment with M14 melanoma stood at 3.07 µM; with SNB-75 CNS, 1.43 µM; in the experiment with NCI-H23 lung, 2.44 µM; in the experiment on SN12C renal, 2.88 µM.

`CCOC(=O)C1=CC(C)(C(=O)OCC)Nc2c(nc(SC)n(C)c2=O)N1` (stereo unspecified): the TGI in the experiment with BT-549 breast, with SK-MEL-5 melanoma, in the experiment with A549 NSCLC, in the experiment with OVCAR-3 ovarian, in the experiment with MDA-MB-435 and with SW-620 colon was > 10 µM in each case. Besides, the total growth inhibition concentration (TGI) with M14 melanoma, in the experiment with SNB-75 CNS, in the experiment with NCI-H23 lung and in the experiment with SN12C renal was > 10 µM throughout.

With `COc1cc(/C=c2/c3ccccc3n3c2cc(-c2ccccc2)[n+]3C)cc(OC)c1OC`, the TGI is 11.8 µM in the experiment on BT-549 breast; 6.73 µM in the experiment with SK-MEL-5 melanoma; > 100 µM with A549 NSCLC; 6.82 µM in the experiment on OVCAR-3 ovarian; 6.19 µM in the experiment with MDA-MB-435; 14.5 µM with SW-620 colon. Further, the TGI in the experiment with M14 melanoma is > 35.8 µM; in the experiment on SNB-75 CNS, 15.2 µM; with NCI-H23 lung, 14.8 µM; in the experiment with SN12C renal, 12 µM.

Consider `Cc1nc2c(Cl)cc(Cl)cc2c(Cl)c1CCCl`, for which the TGI in the experiment on BT-549 breast, in the experiment with SK-MEL-5 melanoma, in the experiment with A549 NSCLC, with OVCAR-3 ovarian, in the experiment on MDA-MB-435 and with SW-620 colon was > 100 µM throughout. For the same compound, the TGI in the experiment on M14 melanoma, in the experiment on SNB-75 CNS, with NCI-H23 lung and with SN12C renal was > 100 µM in each case.

For `NNC(=O)CCC(NS(=O)(=O)c1ccc(Cl)cc1)C(=O)NN` (stereo unspecified), the concentration for total growth inhibition (TGI) in the experiment with BT-549 breast, in the experiment with SK-MEL-5 melanoma, in the experiment with A549 NSCLC, with OVCAR-3 ovarian, in the experiment with MDA-MB-435 and in the experiment on SW-620 colon was > 100 µM each time. The TGI in the experiment on M14 melanoma, with SNB-75 CNS, in the experiment on NCI-H23 lung and with SN12C renal was > 100 µM in each case.

As for `COc1cc(/C=C2\N=C(C)N(n3c(-c4ccccc4)nc4ccccc4c3=O)C2=O)cc(OC)c1OC`, the total growth inhibition concentration (TGI) in the experiment with BT-549 breast, in the experiment with SK-MEL-5 melanoma, with A549 NSCLC, in the experiment on MDA-MB-435, in the experiment on SW-620 colon and in the experiment on M14 melanoma was > 100 µM each time. Also, the TGI in the experiment on SNB-75 CNS, in the experiment with NCI-H23 lung and in the experiment on SN12C renal was > 100 µM each time.

For `COc1cccc2c1-c1c(OC)cccc1SS2`, the TGI in the experiment with BT-549 breast is 86.5 µM; in the experiment with SK-MEL-5 melanoma, 26.5 µM; in the experiment on A549 NSCLC, 33.5 µM; with OVCAR-3 ovarian it was 48.7 µM; in the experiment on MDA-MB-435, 15.1 µM; with SW-620 colon, 47.2 µM. Also, the TGI was > 100 µM with M14 melanoma, 72.8 µM with NCI-H23 lung and 30.3 µM with SN12C renal.

As for `C=CC[C@@H]1C=C[C@@H](C(=O)OC)n2c(=O)n(-c3ccccc3)c(=O)n21`, the TGI with BT-549 breast, in the experiment with SK-MEL-5 melanoma, with OVCAR-3 ovarian, in the experiment on MDA-MB-435, with SW-620 colon and with M14 melanoma was > 100 µM throughout. The concentration for total growth inhibition (TGI) in the experiment on SNB-75 CNS, in the experiment on NCI-H23 lung and in the experiment with SN12C renal was > 100 µM in each case.

Consider `CC(O)c1cc2c(s1)C(=O)c1scc(C(C)O)c1C2=O` (stereo unspecified), for which the TGI is 0.403 µM in the experiment on BT-549 breast; 0.351 µM in the experiment on SK-MEL-5 melanoma; 3.98 µM in the experiment with A549 NSCLC; 0.455 µM in the experiment on MDA-MB-435; > 100 µM with SW-620 colon; 0.442 µM in the experiment on M14 melanoma. Besides, the TGI is 0.767 µM with SNB-75 CNS, 0.415 µM in the experiment on NCI-H23 lung and 0.44 µM with SN12C renal.

Usually TGI stands for the concentration giving total growth inhibition. High values mean lower sensitivity of the cells, low ones greater sensitivity of the cells.
